Like-named read-outs stand apart in the source and are kept apart here. Values belong to the compound of their own block, whether it stands above or below them.
How the values were obtained:
[1] = maximum solubility in water by turbidity measurements (CrystalBreeder); conditions: at 37° C., Van't Hoff
Description: (§1) Solubility measurements were taken using a CrystalBreeder system (Technobis). Known amounts of solid compound and water were added to 0.3 mL clear round bottom vials equipped with a stir bar. The vials were sealed with a Teflon coated rubber crimped caps to prevent evaporation of solvent. Vials were loaded into one of the independently heated aluminum reactor blocks and turbidity measurements were taken using an LED light source and detector to measure particles in solution. Samples were heated to 85° C. at a rate of 0.2° C./min, held at 85° C. for 30 minutes, and then cooled to 0° C. at a rate of 0.2° C./min. Clear points were calculated based on the temperature at which 100% transmittance of solution was reached. Van't Hoff plots of concentration vs. time were produced from the data using CrystalClear software (Technobis) to determine the solubility of each form at different temperatures.

[2] = pharmacokinetic studies in rats (oral suspension vs IV); assay type: in vivo, Male Sprague-Dawley rats; conditions: rat; for % F (bioavailability): oral 30 mg/kg vs IV 15 mg/kg monohydrate; for AUC / Cmax / Tmax: oral gavage 30 mg/kg suspension, 30 mg/kg; for AUC / Cmax: plasma
Description: The bioavailability of the three forms was determined by comparison of suspension and intravenous administration in order to quantify the effect. […] Since the Tmax of the hemihydrate was much higher than the other two forms, it seems more compound was able to be absorbed overall even though over a somewhat longer time period, whereas the monohydrate and anhydrate were limited due to the solubility of the monohydrate form (FIG. 3).
Pharmacokinetic studies in rats were performed at Avastus Preclinical Services, Cambridge, Mass. All procedures were performed in accordance with the Guide for Care and Use of Laboratory Animals and were approved by the Avastus Institutional Animal Care and Use Committee. Male Sprague-Dawley rats weighing 200-300 g were dosed with mercaptopurine via oral gavage with a dosing volume of 5 mL/kg and a dose of 30 mg mercaptopurine form/kg or via IV administration at a dosing volume of 5 mL/kg and a dose of 15 mg mercaptopurine monohydrate/kg. Each group consisted of three rats, with one oral administration group for each form of mercaptopurine, and one IV administration group using the monohydrate form for reference. Blood samples were collected at time points of 15, 30, 60, 120, 240 minutes as well as 8 and 24 hours post dose. An additional time point at 5 minutes was taken for the IV administration group. Samples were centrifuged and the decanted plasma samples were stored at −80° C. until analysis.
The plasma samples were analyzed via LC-MS/MS using an Agilent 6410 mass spectrometer coupled with an Agilent 1200 HPLC and a CTC PAL chilled autosampler, all controlled by MassHunter software (Agilent). All plasma samples were crashed with three volumes of methanol containing an […] and centrifuged to remove precipitated protein before analysis. Samples were compared to a calibration curve prepared in rat blank plasma. Separation was performed on a C18 reverse phase HPLC column (Kinetex PFP, 2.6 μm, 2.1×50 mm) using an acetonitrile-water gradient system and peaks were analyzed by MS using ESI ionization in MRM mode. Peak area ratio to internal standard is used to interpolate plasma concentration for each sample from the calibration curve of peak area internal standard ratio to concentration. Pharmacokinetic parameters were fit using a custom WinNonlin analysis with PO dosing analysis. Area under the curve (AUC) for mercaptopurine was also calculated using the custom WinNonlin analysis. Cmax (maximum plasma concentration) and Tmax (time to reach maximum plasma concentration) were determined by visual inspection of the experimental data. The bioavailability (% F) was calculated from the following equation:
[formula] Frel was calculated with respect to the monohydrate form.

[3] = stability to hydration: slurry conversion monitored by non-contact Raman probe; assay type: physicochemical; conditions: aqueous slurry; for time to convert to the monohydrate form: full conversion
Description: In order to determine the stability to hydration, slurries of the anhydrate and hemihydrate forms were monitored using a non-contact Raman probe.
Raman spectra during slurry conversion were collected using a Kaiser Optical Systems Raman Rxn Microprobe equipped with a Multi-Rxn non-contact optic, 785 nm laser, and a multi-channel CCD detector. Spectra were collected with a range of 150-3425 cm^−1 and then analyzed using the HoloGRAMS 4.1 software package (Kaiser). Calibration was performed using a HoloLab Calibration Accessory and a cyclohexane standard.

[4] = thermally-induced phase transitions by DSC and variable temperature PXRD; assay type: physicochemical; conditions: for loss of crystallinity corresponding with a loss of water: variable temperature PXRD, conversion to anhydrate
Description: DSC analysis and variable temperature PXRD were used to analyse the thermally-induced phase transitions of the compounds.
Variable temperature PXRD data were collected on a Rigaku SmartLab diffractometer using Cu-Kα radiation (λ=1.54187 Å) and operating at 40 kV and 44 mA. Samples were placed on a glass cover slip on top of a copper block that was heated at 2° C./min using a J-KEM Model 210 temperature controller. The setup was covered with a housing of Kapton to keep heat in but allow X-rays to penetrate. The spectrum was collected by scanning […] from 20 to 29° with a step size of 0.01° and a step speed of 0.1 seconds. Powder patterns were processed using Jade 8 XRD Pattern Processing, Identification & Quantification analysis software.^1
Thermograms of the monohydrate and hemihydrate forms were recorded on a TA Instruments Q20 DSC. […] Calibration of the instrument was performed using an indium standard. Thermograms were analyzed using TA Universal Analysis 2000, V 4.5A.

some cancer lines = conditions: cited from earlier work
physchem = conditions: water, 37 °C, thermodynamic from solid
Description: as §1

[5] = at 37° C.; background statement; cited from earlier work

average solubility in water [1]: 0.400 mg/mL
% F (bioavailability) [2]: 2.9%
AUC [2]: 0.43 ± 0.03 µg·h/mL
Cmax [2]: 0.26 ± 0.01 µg/mL
Tmax [2]: 49.8 ± 17.4 min
time to convert to the monohydrate form [3]: 2 to 5 h
Structure (SMILES): Sc1ncnc2nc[nH]c12 [Anhydrate, mercaptopurine]

average solubility in water ([1]; hemihydrate): 0.390 mg/mL
dehydration temperature (water loss, endothermic event) ([4]; DSC / variable temperature PXRD): 240 °C
loss of crystallinity corresponding with a loss of water ([4]; hemihydrate): does not show any loss of crystallinity
% F (bioavailability) ([2]; hemihydrate): 3.8%
AUC ([2]; hemihydrate): 0.57 ± 0.12 µg·h/mL
Cmax ([2]; hemihydrate): 0.28 ± 0.11 µg/mL
Tmax ([2]; hemihydrate): 100 ± 34.8 min
time to convert to the monohydrate form ([3]; hemihydrate): approximately 70 hours
time at which conversion to the monohydrate begins ([3]; onset): approximately 5 hours
Structure (SMILES): Sc1ncnc2nc[nH]c12 [Hemihydrate, mercaptopurine hemihydrate]

Structure (SMILES): S=c1[nH]cnc2nc[nH]c12 [Mercaptopurine]
IC50 (some cancer lines): 500 nM

Tmax of merged endothermic event (water loss and loss of crystallinity) ([4]; open DSC pan): 177 °C
loss of crystallinity event ([4]; sealed DSC pan): ~190 °C
water loss event ([4]; sealed DSC pan): ~140 °C
loss of crystallinity corresponding with a loss of water ([4]; monohydrate): ~160 °C
Cmax ([2]; male, Sprague-Dawley, po, read-out: Cmax): 0.23 ± 0.05 µg/mL
% F (bioavailability) ([2]; monohydrate): 1.4%
AUC ([2]; monohydrate): 0.21 ± 0.06 µg·h/mL
Tmax ([2]; monohydrate): 49.8 ± 17.4 min
solubility (physchem): 249 µg/mL
Structure (SMILES): Sc1ncnc2nc[nH]c12 [Monohydrate, mercaptopurine monohydrate]
water solubility [5]: 0.249 mg/mL
